# According to PubChem BioAssay AID2049 (The Scripps Research Institute Molecular Screening Center, 2009):
# Active and inactive are the calls of the source. No rule for the calls is given here.
# System: Cytotoxicity
# Assay: STAT3 activation with BCL3 mRNA and toxicity – cell-based, STAT1 reporter, BCL3 qPCR, cytotoxicity, late-stage follow-up (AID 2049)
# Details: human cell reporter, cytotoxicity panel
row,SMILES,CC50 [µM]
1,COc1cc(NC(=O)c2cc(C3CC3)on2)c(OC)cc1Cl,> 55.7

# Target: Signal transducer and activator of transcription 1-alpha/beta (Homo sapiens) (UniProt P42224)
# Sequence (P42224 whole entry, looked up): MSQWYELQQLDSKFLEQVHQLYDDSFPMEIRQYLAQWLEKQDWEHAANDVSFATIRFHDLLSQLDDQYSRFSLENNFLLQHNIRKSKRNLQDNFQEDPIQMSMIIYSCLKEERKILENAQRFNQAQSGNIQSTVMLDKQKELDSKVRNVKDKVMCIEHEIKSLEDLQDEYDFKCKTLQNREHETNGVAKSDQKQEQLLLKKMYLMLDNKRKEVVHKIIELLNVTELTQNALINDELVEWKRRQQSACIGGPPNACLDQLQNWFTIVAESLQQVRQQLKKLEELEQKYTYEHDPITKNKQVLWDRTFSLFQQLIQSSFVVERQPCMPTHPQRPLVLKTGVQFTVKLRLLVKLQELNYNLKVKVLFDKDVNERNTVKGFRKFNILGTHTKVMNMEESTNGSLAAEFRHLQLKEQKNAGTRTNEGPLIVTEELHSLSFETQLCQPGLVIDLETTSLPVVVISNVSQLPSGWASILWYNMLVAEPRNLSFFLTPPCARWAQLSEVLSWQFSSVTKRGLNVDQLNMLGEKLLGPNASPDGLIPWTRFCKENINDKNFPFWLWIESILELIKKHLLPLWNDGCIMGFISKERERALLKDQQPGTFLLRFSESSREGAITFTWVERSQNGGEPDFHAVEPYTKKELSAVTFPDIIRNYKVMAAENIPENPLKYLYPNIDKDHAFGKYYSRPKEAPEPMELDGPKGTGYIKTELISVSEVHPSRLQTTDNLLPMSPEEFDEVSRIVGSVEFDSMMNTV
# Assay: as above
# Details: STAT1, Activation
row,SMILES,EC50
1,COc1ccccc1NC(=O)c1cc(-c2ccccc2)on1,inactive
2,CCCc1cc(C(=O)Nc2cc(OC)c(Cl)cc2OC)no1,> 55.7 µM (inactive)
3,COc1cc(NC(=O)c2cc(C3CC3)on2)c(OC)cc1Cl,> 55.7 µM (inactive)
4,COc1cc(NC(=O)c2cc(C3CC3)on2)ccc1Br,inactive
5,O=C(Nc1ccccc1Cl)c1cc(C2CC2)on1,3.05 µM
6,COc1cc(NC(=O)c2cc(C)on2)c(OC)cc1Cl,> 55.7 µM (inactive)
7,COc1cc(OC)c(NC(=O)c2cc(CN3CCCC3)on2)cc1Cl,> 55.7 µM (inactive)
8,COc1cc(NC(=O)c2cc(C(C)C)on2)c(OC)cc1Cl,> 55.7 µM (inactive)
9,COc1cccc(NC(=O)c2cc(C3CC3)on2)c1,5.23 µM
10,COc1cc(NC(=O)c2cc(C3CC3)on2)cc(OC)c1,inactive
11,COc1ccc(OC)c(NC(=O)c2cc(CN3CCCC3)on2)c1,> 55.7 µM (inactive)
12,CN(C(=O)c1cc(C2CC2)on1)c1ccccc1,> 55.7 µM (inactive)
13,COc1ccc(Cl)cc1NC(=O)c1cc(C2CC2)on1,> 55.7 µM (inactive)
14,Nc1c(C(=O)Nc2ccccc2)noc1C(=O)c1ccccc1,> 55.7 µM (inactive)
